One series has as its system A549. The experiment in a line: Anticancer activity against human A549 cells by MTT assay. Format: functional, cell-based. Background: Tetrazolium dyes change colour on reduction, which living cells bring about.
A short description of series [1]: Anticancer activity against mouse P388D1 cells by MTT assay. The class given is functional, cell-based.
A further series has as its system K562. The series can be described thus: Anticancer activity against human K562 cells by MTT assay. The class given is functional, cell-based.
Series [2] in a line: Anticancer activity against human KATO III cells by MTT assay. Format: functional, cell-based, KATO III cell.
In the next series the test system is COLO 205. The series can be described thus: Anticancer activity against human COLO205 cells by MTT assay. The class given is functional, cell-based.
Another series concerns SK-OV-3. The experiment in a line: Anticancer activity against human SKOV3 cells by MTT assay. The class given is functional, cell-based.
The test system of series [3] is Mus musculus. The experiment in a line: Toxicity in human NCI-H23 cells xenografted BALB/c nu/nu mouse assessed as change in body weight at 65 mg/kg, po administered every alternative day for 12 days measured on day 20 (reference value: 1.2 g). The class given is organism-based. Also on record: dose 65 mg/kg, route oral. Conditions: in vivo, 288 h.
Series [4] concerns NCI-H23. The series can be described thus: Anticancer activity against human NCI-H23 cells xenografted in BALB/c nu/nu mouse assessed as tumor growth inhibition at 65 mg/kg, po every alternative day for 12 days measured on day 19. Format: functional. The conditions noted are these: read-out: TGI. (In general: In xenograft studies the graft and the host belong to different species.)

Series [5] has as its system Mus musculus. The series can be described thus: Toxicity in human SW620 cells xenografted BALB/c nu/nu mouse assessed as change in body weight at 65 mg/kg, po administered every alternative day for 12 days measured on day 20 (reference value: 1.1 g). Format: organism-based, SW-620. The arrangement: dose 65 mg/kg, route oral. The conditions noted are these: in vivo, 288 h.

For series [6], the system named is SW-620. The experiment in a line: Anticancer activity against human SW620 cells xenografted in BALB/c nu/nu mouse assessed as tumor growth inhibition at 65 mg/kg, po every alternative day for 12 days measured on day 19. The conditions noted are these: read-out: TGI. The class given is functional.
Series [7] relates to SW-620. The series can be described thus: Anticancer activity against human SW620 cells xenografted in BALB/c nu/nu mouse assessed as tumor growth inhibition at 1 mg/kg, ip qd for 11 days followed by 2 mg/kg, ip qd on day 12 to day 14 and 3 mg/kg, ip qd on day 15 to day 18 measured on day 19. The class given is functional.
In series [8] the test system is NCI-H23. The series can be described thus: Anticancer activity against human NCI-H23 cells xenografted in BALB/c nu/nu mouse assessed as tumor growth inhibition at 1 mg/kg, ip qd for 11 days followed by 2 mg/kg, ip qd on day 12 to day 14 and 3 mg/kg, ip qd on day 15 to day 18 measured on day 19. Format: functional.
The subject of series [9] is Mus musculus. The series can be described thus: Toxicity in human NCI-H23 cells xenografted BALB/c nu/nu mouse assessed as change in body weight at 1 mg/kg, ip qd for 11 days followed by 2 mg/kg, ip qd on day 12 to day 14 and 3 mg/kg, ip qd on day 15 to day 18 measured on day 20 (reference value: 1.2 g). Conditions: in vivo, 264 h. Format: organism-based.
Series [10] relates to Mus musculus. The series can be described thus: Toxicity in human SW620 cells xenografted BALB/c nu/nu mouse assessed as change in body weight at 1 mg/kg, ip qd for 11 days followed by 2 mg/kg, ip qd on day 12 to day 14 and 3 mg/kg, ip qd on day 15 to day 18 measured on day 20 (reference value: 1.1 g). The class given is organism-based, SW-620. Conditions: in vivo, 264 h.

In the case of `O=C1NC(c2ccccc2)CN1S(=O)(=O)c1ccc2c(c1)CCCN2` (stereo not given), the 50% inhibitory concentration (IC50) in the series with A549 was more than 20 µM; in series [1], 4.25 µM; in the series with K562, more than 20 µM; in series [2] it was more than 20 µM; with COLO 205, 7.23 µM; in the series with SK-OV-3 it was 10.4 µM.
Consider `COC(=O)N1CCCc2cc(S(=O)(=O)N3CC(c4ccccc4)NC3=O)ccc21` (stereo not given), for which the half-maximal inhibitory concentration (IC50) is 1.15 µM in the series on A549; 2.26 µM in [1]; more than 20 µM in the series with K562; 16.5 µM in series [2]; 4.01 µM in the series with COLO 205; 3.48 µM in the series on SK-OV-3.
In the case of `CCOC(=O)N1CCCc2cc(S(=O)(=O)N3CC(c4ccccc4)NC3=O)ccc21` (stereo not given), the IC50 is 0.344 µM in the series on A549; 1.43 µM in series [1]; more than 20 µM with K562; 11.2 µM in series [2]; 2.78 µM with COLO 205; 2.88 µM in the series with SK-OV-3.
With `CCCOC(=O)N1CCCc2cc(S(=O)(=O)N3CC(c4ccccc4)NC3=O)ccc21` (stereo not given), the IC50 in the series on A549 is 1.03 µM; in series [1], 2.02 µM; in the series on K562, more than 20 µM; in series [2], 3.3 µM; in the series on COLO 205 it was 1.42 µM; in the series with SK-OV-3 it was 3.92 µM.
Consider `CC(C)COC(=O)N1CCCc2cc(S(=O)(=O)N3CC(c4ccccc4)NC3=O)ccc21` (stereo not given), for which the IC50 is more than 20 µM with A549; 1.25 µM in series [1]; 2.38 µM in the series with K562; 2.75 µM in series [2]; 3.72 µM with COLO 205; 5.65 µM in the series on SK-OV-3.
In the case of `CCCCOC(=O)N1CCCc2cc(S(=O)(=O)N3CC(c4ccccc4)NC3=O)ccc21` (stereo not given), the IC50 was more than 20 µM in the series with A549; 2.08 µM in series [1]; 3.68 µM in the series on K562; 4.01 µM in [2]; 4.11 µM with COLO 205; 9.57 µM in the series with SK-OV-3.
For the compound `C=CCOC(=O)N1CCCc2cc(S(=O)(=O)N3CC(c4ccccc4)NC3=O)ccc21` (stereo not given), the IC50 was found to be 4.31 µM with A549; 0.945 µM in series [1]; 0.473 µM in the series with K562; 5.05 µM in [2]; 6.58 µM with COLO 205; 2.75 µM in the series with SK-OV-3.
`O=C(OCCCl)N1CCCc2cc(S(=O)(=O)N3CC(c4ccccc4)NC3=O)ccc21` (stereo not given): the concentration for half-maximal inhibition (IC50) in the series with A549 was more than 20 µM; in [1], 1.21 µM; in the series on K562 it was 10.6 µM; in series [2], 8.68 µM; in the series with COLO 205 it was 2.82 µM; in the series with SK-OV-3, 9.8 µM.
Take `O=C(CCl)N1CCCc2cc(S(=O)(=O)N3CC(c4ccccc4)NC3=O)ccc21` (stereo not given): the IC50 in the series with K562 worked out at 1.09 µM; in [2], 3.46 µM; with COLO 205 it was 11.2 µM.
Regarding `O=C(c1ccccc1)N1CCCc2cc(S(=O)(=O)N3CC(c4ccccc4)NC3=O)ccc21` (stereo not given), the IC50 with A549 stood at 8.14 µM; in series [1], 5.34 µM; in the series with K562, 1.22 µM; in series [2], 14.3 µM; in the series on COLO 205, 19.3 µM; with SK-OV-3, 8.56 µM.
With `O=C1NC(c2ccccc2)CN1S(=O)(=O)c1ccc2c(c1)CCCN2C(=O)C(F)(F)F` (stereo not given), the IC50 was more than 20 µM in the series on A549; 4.72 µM in [1]; more than 20 µM with K562; 13.1 µM in series [2]; 10.7 µM in the series with COLO 205; 19.6 µM in the series on SK-OV-3.
As to `NC(=O)N1CCCc2cc(S(=O)(=O)N3CC(c4ccccc4)NC3=O)ccc21` (stereo not given), the IC50 with A549 is 2.54 µM; in [1], 12.3 µM; in the series with K562, 3.66 µM; in [2], 3.59 µM; in the series with COLO 205, more than 20 µM; in the series with SK-OV-3 it was more than 20 µM.
Regarding `O=C(CCl)NC(=O)N1CCCc2cc(S(=O)(=O)N3CC(c4ccccc4)NC3=O)ccc21` (stereo not given), the IC50 was determined as 0.449 µM in the series on A549; 3.87 µM in [1]; 0.515 µM with K562; 2.54 µM in series [2]; 9.9 µM in the series on COLO 205; 6.14 µM in the series on SK-OV-3. Besides, the Activity in the series on Mus musculus [3] is recorded as -0.6 g; in the series with Mus musculus [5], 1 g. Besides, the inhibition in vivo at 65 mg/kg in the series on NCI-H23 [4] stood at 58.5%; in the series on SW-620 [6] it was 67%.
As for `O=C(NC1CCCCC1)N1CCCc2cc(S(=O)(=O)N3CC(c4ccccc4)NC3=O)ccc21` (stereo not given), the IC50 in the series on A549 was found to be 0.231 µM; in series [1] it was 8.16 µM; in the series on K562 it was 0.813 µM; in series [2] it was 8.92 µM; with COLO 205 it was 3.89 µM; with SK-OV-3, 1.84 µM. The Activity in the series on Mus musculus [3] came out at 1.6 g; in the series on Mus musculus [5], 2 g. In addition, the results for the inhibition in vivo at 65 mg/kg in the series on NCI-H23 [4] and with SW-620 [6] were 65.2% and 72.6%, respectively.
Consider `CC1(c2ccccc2)CN(S(=O)(=O)c2ccc3c(c2)CCCN3C(=O)C(F)(F)F)C(=O)N1` (stereo not given), for which the half-maximal inhibitory concentration (IC50) (in the series on A549; in [1]; with K562; in series [2]; in the series with COLO 205; in the series with SK-OV-3) was more than 20 µM in each case.
Regarding `CSc1ccc(NC(=O)N2CCCc3cc(S(=O)(=O)N4CC(C)(c5ccccc5)NC4=O)ccc32)cc1` (stereo not given), the IC50 (in the series on A549; in series [1]; in the series on K562; in the series with COLO 205; in the series on SK-OV-3) was more than 20 µM each time.
Consider `COc1ccc(NC(=O)N2CCCc3cc(S(=O)(=O)N4CC(C)(c5ccccc5)NC4=O)ccc32)cc1` (stereo not given), for which the IC50 was 5.3 µM in the series on A549; 15.9 µM in [1]; 12.4 µM in the series with K562; more than 20 µM in the series on COLO 205; 9.47 µM in the series on SK-OV-3.
For the compound `COc1cccc2c1C(=O)c1c(O)c3c(c(O)c1C2=O)C[C@@](O)(C(=O)CO)C[C@@H]3O[C@H]1C[C@H](N)[C@H](O)[C@H](C)O1` [DOXORUBICIN], the IC50 in series [1] amounted to 0.338 µM; in the series with K562, 0.198 µM; in series [2], 4.38 µM; in the series with COLO 205, 0.4 µM; in the series on SK-OV-3, 2.95 µM. The inhibition of tumour growth (TGI) is given as 45% in the series on SW-620 [7] and 39.6% with NCI-H23 [8]. Besides, the Activity is recorded as -1.6 g with Mus musculus [9] and -2.3 g in the series with Mus musculus [10].
Regarding `O=C(Nc1ccc(Cl)cc1)NS(=O)(=O)c1ccc2c(c1)CCC2` [SULOFENUR], the 50% inhibitory concentration (IC50) in the series on A549 was more than 20 µM; in series [1], more than 100 µM; with K562, 19.2 µM; in series [2], 31.4 µM; with COLO 205, 23.1 µM; in the series with SK-OV-3 it was 78.2 µM.

One may read the IC50 as the concentration needed to halve the response being measured. Low values mean inhibition by little substance, high ones a need for much substance. The term TGI denotes how far tumour growth fell short of that in controls.

(Values after ChEMBL document CHEMBL1806436, “Structure--activity relationship studies of novel arylsulfonylimidazolidinones for their anticancer activity” (Eur J Med Chem, 2011).)
